Reference: patent US9422263B2, “Fluoro-substituted 3,5-dicyano-4-(1H-indazol-5-yl)-2,6-dimethyl-1,4-dihydropyridine derivatives and methods of use thereof” (BAYER PHARMA AKTIENGESELLSCHAFT, priority 2009, dated 2016)
Like-named read-outs stand apart in the source and are kept apart here.

How the values were obtained:
[1] = molecular target: Recombinant human c-Met protein (Homo sapiens (Human), UniProt P08581); experiment: c-Met receptor tyrosine kinase activity assay (NADH read-out); type: biochemical; settings: ATP 30 μM, c-Met 30 nM
Description: c-Met Receptor Tyrosine Kinase Activity Assay (NADH Read-Out):
Recombinant human c-Met protein (Invitrogen, Carlsbad, Calif., USA) is used. As substrate for the kinase reaction the peptide KKKSPGEYVNIEFG (JPT, Germany) is used. For the assay, 1 μL of a 51-fold concentrated solution of the test compound in DMSO is pipetted into a white 384-well microtiter plate (Greiner Bio-One, Frickenhausen, Germany). 25 μL of a solution of c-Met (final concentration 30 nM) and pyruvate kinase/lactate dehydrogenase (Roche Diagnostics, Mannheim, Germany; final concentration 8 mg/L) in assay buffer [3-(N-morpholino)propanesulfonic acid (MOPS), 50 mM, pH 7; MgCl2, 10 mM; bovine serum albumin (BSA), 0.01%; Triton X 100, 0.01%; DTT, 2 mM] are added, and the mixture is incubated for 5 min at room temperature. Then, the kinase reaction is started by the addition of 25 μL of a solution of adenosine triphosphate (ATP, final concentration 30 μM), substrate (final concentration 100 μM), nicotinamide adenine dinucleo-tide (NADH, final concentration 50 μM) and dithiothreitol (DTT, final concentration 2 mM) in assay buffer, and the resulting mixture is incubated for a reaction time of 100 min at 32° C.
Subsequently, the amount of phosphorylated substrate is evaluated by measurement of the decrease of NADH fluorescence. Therefore, the fluorescence emissions at 465 nm after excitation at 340 nm is measured in a fluorescence reader, e.g. Tecan Ultra (Tecan, Männedorf, Switzerland). The data are normalised (enzyme reaction without inhibitor=0% inhibition; all other assay components but no enzyme=100% inhibition).

[2] = Caco-2 permeability assay; type: in vitro ADME; settings: human, apical to basolateral, 2 h at 37° C.
Source text: Caco-2 Permeability Assay:
The in vitro permeation of a test compound across a Caco-2 cell monolayer is a well-established assay system to predict the permeability from the gastro-intestinal tract [cf. P. Artursson and J. Karlsson: Correlation between oral drug absorption in humans and apparent drug permeability coefficients in human intestinal epithelial (Caco-2) cells, Biochem. Biophys. 175 (3), 880-885 (1991)]. The permeability of the compounds of the present invention in such Caco-2 cells was determined as described below:
Human caco-2 cells (ACC No. 169, DSMZ, German Collection of Microorganisms and Cell Cultures, Braunschweig, Germany) are seeded on 24-well insert plates and are allowed to grow for 14-16 days. For permeability studies, the test compounds are dissolved in DMSO and diluted to the final test concentration of 2 μM with transport buffer [Hanks' Buffered Salt Solution, Gibco/Invitrogen, further supplemented with glucose (final concentration 19.9 mM) and HEPES (final concentration 9.8 mM)]. For determination of the apical to basolateral permeability (PappA-B), the test compound solution is added to the apical side of the cell monolayer and transport buffer to the basolateral side of the monolayer; for determination of the basolateral to apical permeability (PappB-A), the test compound solution is added to the basolateral side of the cell monolayer and transport buffer to the apical side of the monolayer. Samples are taken from the donor compartment at the beginning of the experiment to confirm mass balance. After an incubation of 2 h at 37° C., samples are taken from both compartments. Samples are analyzed by LC-MS/MS, and the apparent permeability coefficients are calculated. Lucifer Yellow permeability is assayed for each cell monolayer to ensure cell monolayer integrity, and the permeability of Atenolol (low permeability marker) and Sulfasalazine (marker for active excretion) is determined for each batch as quality control.

[3] = Pharmacokinetics after intravenous administration of test compounds; type: in vivo, rat; settings: for in vivo PK, rat i.v. CLblood: male Wistar rats, total blood clearance; for in vivo PK, rat i.v. Fmax, calc: Fmax,calc=[1−CLblood/Qh]*100, Qh 4.2 L per h per kg
Description: Pharmacokinetics after Intravenous Administration of Test Compounds: Male Wistar rats (Harlan Laboratories) are anesthetized and a catheter is inserted into the jugular vein of the rat. The next day, a defined dose of the test compound is administered as solution by injection into the tail vein. Blood samples are collected through the jugular catheter during the next 24 h (8-11 time points). Blood is centrifuged in heparin-tubes, and each plasma sample is treated with acetonitrile for protein precipitation. After centrifugation, the test compound in the supernatant is quantified using an LC-MS/MS method. The determined plasma concentrations are used for the calculation of pharmacokinetic parameters, such as AUC (area under the plasma concentration vs. time curve), Vss (volume of distribution under steady-state conditions), Cmax (highest test compound concentration observed in plasma following administration), t1/2 (half-life) and CL (total clearance of the test compound from the plasma). For the calculation of the blood clearance, the blood to plasma partitioning is determined by incubation of the test compound in blood of rats. After separation of the plasma by centrifugation, the concentration in the plasma is determined by an LC-MS/MS method. Under the assumption that the test compound is completely absorbed, the theoretically maximum achievable bioavailability Fmax,calc is calculated by the equation Fmax,calc=[1−CLblood/Qh]*100, wherein CLblood is the total blood clearance and Qh is the hepatic blood flow in rat of 4.2 L per h per kg.

[4] = Pharmacokinetics after peroral administration of test compounds; type: in vivo, rat; settings: for in vivo PK, rat p.o. F / in vivo PK, rat p.o. AUCnorm: male Wistar rats; for in vivo PK, rat p.o. F: bioavailability; for in vivo PK, rat p.o. AUCnorm: dose and body weight-normalized AUC; for Fraction absorbed fabs, calc: rat p.o., fabs,calc=[F/Fmax,calc]*100
Description: Pharmacokinetics after Peroral Administration of Test Compounds: Male Wistar rats (Harlan Laboratories) are anesthetized and a catheter is inserted into the jugular vein of the rat. The next day, a defined dose of the test compound is administered perorally. Blood samples are collected through the jugular catheter during the next 24 h (8-11 time points). Blood is centrifuged in heparin-tubes, and each plasma sample is treated with acetonitrile for protein precipitation. After centrifugation, the test compound in the supernatant is quantified using an LC-MS/MS method. The determined plasma concentrations are used for the determination of pharmacokinetic parameters, such as AUC (area under the plasma concentration vs. time curve), Cmax (highest test compound concentration observed in plasma following administration), t1/2 (half-life) and F (bioavailability). The fraction of the dose absorbed (fabs,calc) is calculated by the equation fabs,calc=[F/Fmax,calc]*100, wherein F is the determined bioavailability after peroral administration and Fmax,calc is the theoretically maximum achievable bioavailability considering the determined blood clearance and assuming that the test compound is completely absorbed.

[5] = Table 4, read-out: Caco-2 permeability PappA-B
[6] = Table 3, read-out: Caco-2 permeability PappA-B

Sequence of Recombinant human c-Met protein (P08581 25-1390): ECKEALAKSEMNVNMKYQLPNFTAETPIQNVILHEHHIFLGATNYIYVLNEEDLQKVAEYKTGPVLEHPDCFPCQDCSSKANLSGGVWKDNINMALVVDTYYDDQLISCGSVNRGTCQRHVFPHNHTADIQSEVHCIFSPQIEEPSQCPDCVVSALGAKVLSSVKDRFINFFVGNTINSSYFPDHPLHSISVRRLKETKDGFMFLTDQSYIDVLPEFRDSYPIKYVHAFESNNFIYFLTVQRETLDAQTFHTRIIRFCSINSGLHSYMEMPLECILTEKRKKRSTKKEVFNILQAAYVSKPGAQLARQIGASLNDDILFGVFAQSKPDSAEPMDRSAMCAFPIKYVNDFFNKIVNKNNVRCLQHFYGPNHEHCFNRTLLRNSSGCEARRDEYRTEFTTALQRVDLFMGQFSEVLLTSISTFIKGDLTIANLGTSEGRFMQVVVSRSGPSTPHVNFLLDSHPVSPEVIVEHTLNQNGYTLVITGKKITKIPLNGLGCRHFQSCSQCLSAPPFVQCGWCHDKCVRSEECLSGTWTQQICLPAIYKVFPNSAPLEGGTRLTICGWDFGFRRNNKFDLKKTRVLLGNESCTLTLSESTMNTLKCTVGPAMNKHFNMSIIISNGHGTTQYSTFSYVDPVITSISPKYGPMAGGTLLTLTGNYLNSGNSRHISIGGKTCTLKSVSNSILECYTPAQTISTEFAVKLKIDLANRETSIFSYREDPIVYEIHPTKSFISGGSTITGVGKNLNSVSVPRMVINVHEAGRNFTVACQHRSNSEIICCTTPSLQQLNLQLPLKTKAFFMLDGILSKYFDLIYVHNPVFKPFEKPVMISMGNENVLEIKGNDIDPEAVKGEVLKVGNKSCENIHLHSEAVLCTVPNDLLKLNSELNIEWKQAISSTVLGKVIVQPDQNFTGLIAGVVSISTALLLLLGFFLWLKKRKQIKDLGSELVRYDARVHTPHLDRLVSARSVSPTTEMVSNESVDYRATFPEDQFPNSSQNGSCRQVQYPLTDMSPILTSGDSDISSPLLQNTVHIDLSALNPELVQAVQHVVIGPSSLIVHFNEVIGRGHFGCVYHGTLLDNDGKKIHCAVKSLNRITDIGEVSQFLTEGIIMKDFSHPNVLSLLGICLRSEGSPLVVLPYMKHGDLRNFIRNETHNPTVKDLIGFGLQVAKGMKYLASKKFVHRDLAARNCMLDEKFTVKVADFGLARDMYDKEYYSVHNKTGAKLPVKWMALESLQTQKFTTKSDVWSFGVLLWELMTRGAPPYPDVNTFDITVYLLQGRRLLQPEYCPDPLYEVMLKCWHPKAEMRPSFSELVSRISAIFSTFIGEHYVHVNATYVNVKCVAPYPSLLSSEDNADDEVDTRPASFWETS

| Structure (SMILES) | IC50 [1] | Papp at 2 h, 2 μM [2, 5] | Papp at 2 h, 2 μM [2, 6] | in vivo PK, rat i.v. CLblood [3] | in vivo PK, rat i.v. Fmax, calc [3] | in vivo PK, rat p.o. F [4] | in vivo PK, rat p.o. AUCnorm [4] | Fraction absorbed fabs, calc [4] |
| --- | --- | --- | --- | --- | --- | --- | --- | --- |
| CC1=C(C#N)C(c2ccc3[nH]nc(C)c3c2)C(C#N)=C(C(F)(F)F)N1C (single isomer, unassigned) [Example 43, 1,2-Dimethyl-4-(3-methyl-1H-indazol-5-yl)-6-(trifluoromethyl)-1,4-dihydropyridine-3,5-dicarbonitrile] | 0.009 µM |  |  |  |  |  |  |  |
| CC1=C(C#N)C(c2ccc3[nH]ncc3c2)C(C#N)=C(C(F)(F)F)N1 (racemic) [Example 20, rac-4-(1H-Indazol-5-yl)-2-methyl-6-(trifluoromethyl)-1,4-dihydropyridine-3,5-dicarbonitrile] | 0.027 µM | 200 nm/s |  |  |  |  |  |  |
| CC1=C(C#N)C(c2cc3c(C)n[nH]c3cc2F)C(C#N)=C(C(F)F)N1 (racemic) [Example 7, rac-2-(Difluoromethyl)-4-(6-fluoro-3-methyl-1H-indazol-5-yl)-6-methyl-1,4-dihydropyridine-3,5-dicarbonitrile] |  |  | 220 nm/s | 1.60 L/h/kg | 62% | 68% | 0.69 kg·h/L | 109% |
| Cc1n[nH]c2ccc(C3C(C#N)=C(C(F)(F)F)NC(C(F)(F)F)=C3C#N)cc12 [Example 26, 4-(3-Methyl-1H-indazol-5-yl)-2,6-bis(trifluoromethyl)-1,4-dihydropyridine-3,5-dicarbonitrile] |  | 348 nm/s |  |  |  |  |  |  |
| Cc1n[nH]c2ccc(C3C(C#N)=C(C(F)F)NC(C(F)F)=C3C#N)cc12 [Example 13, 2,6-Bis(difluoromethyl)-4-(3-methyl-1H-indazol-5-yl)-1,4-dihydropyridine-3,5-dicarbonitrile] |  |  | 393 nm/s | 0.17 L/h/kg | 96% | 70% | 6.16 kg·h/L | 73% |
| CCc1n[nH]c2ccc(C3C(C#N)=C(C(F)F)NC(C(F)F)=C3C#N)cc12 [Example 25, 2,6-Bis(difluoromethyl)-4-(3-ethyl-1H-indazol-5-yl)-1,4-dihydropyridine-3,5-dicarbonitrile] |  | 290 nm/s |  |  |  |  |  |  |
| CC1=C(C#N)C(c2cc3cn[nH]c3cc2F)C(C#N)=C(C(F)F)N1 (single isomer, unassigned) [Example 17, 2-(Difluoromethyl)-4-(6-fluoro-1H-indazol-5-yl)-6-methyl-1,4-dihydropyridine-3,5-dicarbonitrile] | 0.011 µM |  |  |  |  |  |  |  |
| CC1=C(C#N)C(c2ccc3[nH]nc(C)c3c2)C(C#N)=C(C(F)(F)F)N1 (single isomer, unassigned) [Example 5] | 0.012 µM |  |  |  |  |  |  |  |
| CC1=C(C#N)C(c2ccc3[nH]nc(C)c3c2)C(C#N)=C(C(F)(F)F)N1C (single isomer, unassigned) [Example 44, 1,2-Dimethyl-4-(3-methyl-1H-indazol-5-yl)-6-(trifluoromethyl)-1,4-dihydropyridine-3,5-dicarbonitrile] | 0.008 µM |  |  |  |  |  |  |  |
| N#CC1=C(C(F)F)NC(C(F)F)=C(C#N)C1c1ccc2[nH]ncc2c1 [Example 24, 2,6-Bis(difluoromethyl)-4-(1H-indazol-5-yl)-1,4-dihydropyridine-3,5-dicarbonitrile] | 0.028 µM | 202 nm/s |  |  |  |  |  |  |
| CC1=C(C#N)C(c2cc3cn[nH]c3cc2F)C(C#N)=C(C(F)(F)F)N1 (racemic) [Example 19, rac-4-(6-Fluoro-1H-indazol-5-yl)-2-methyl-6-(trifluoromethyl)-1,4-dihydropyridine-3,5-dicarbonitrile] |  |  | 176 nm/s | 2.19 L/h/kg | 48% | 40% | 0.33 kg·h/L | 84% |
| CC1=C(C#N)C(c2cc3c(C)n[nH]c3cc2F)C(C#N)=C(C(F)F)N1 (single isomer, unassigned) [Example 8, 2-(Difluoromethyl)-4-(6-fluoro-3-methyl-1H-indazol-5-yl)-6-methyl-1,4-dihydropyridine-3,5-dicarbonitrile] | 0.009 µM |  |  |  |  |  |  |  |
| CC1=C(C#N)C(c2cc3cn[nH]c3cc2F)C(C#N)=C(C(F)F)N1 (racemic) [Example 16, rac-2-(Difluoromethyl)-4-(6-fluoro-1H-indazol-5-yl)-6-methyl-1,4-dihydropyridine-3,5-dicarbonitrile] |  | 226 nm/s |  |  |  |  |  |  |
| CC1=C(C#N)C(c2cc3c(C)n[nH]c3cc2F)C(C#N)=C(C(F)(F)F)N1 (single isomer, unassigned) [Example 12, 4-(6-Fluoro-3-methyl-1H-indazol-5-yl)-2-methyl-6-(trifluoromethyl)-1,4-dihydropyridine-3,5-dicarbonitrile] |  |  | 187 nm/s | 0.79 L/h/kg | 81% | 48% | 1.1 kg·h/L | 59% |
| N#CC1=C(C(F)F)NC(C(F)F)=C(C#N)C1c1cc2cn[nH]c2cc1F [Example 15, 2,6-Bis(difluoromethyl)-4-(6-fluoro-1H-indazol-5-yl)-1,4-dihydropyridine-3,5-dicarbonitrile] |  |  | 169 nm/s | 0.23 L/h/kg | 95% | 63% | 3.87 kg·h/L | 66% |
| CC1=C(C#N)C(c2ccc3[nH]nc(C)c3c2)C(C#N)=C(C(F)(F)F)N1C (racemic) [Example 42, rac-1,2-Dimethyl-4-(3-methyl-1H-indazol-5-yl)-6-(trifluoromethyl)-1,4-dihydropyridine-3,5-dicarbonitrile] |  | 388 nm/s |  |  |  |  |  |  |
